Results on 104 compounds are retold here after PubChem BioAssay AID1996.

In brackets after ≈: the same amount, converted by molar mass. Bounds are passed on as bounds.

For this data set the following is noted: buffer; pH 7.4; 200.0 µM.
One may read the kinetic solubility as solubility judged after dilution from a stock solution rather than from solid. In turn, `N#C/C(=C\c1cccnc1)C(=O)Nc1ccc(S(N)(=O)=O)cc1` yielded a solubility (kinetic) of 36.6 µg/mL (≈ 111 µM).

In turn, `COc1ccc2[nH]c3c(c2c1)CCNC3C.Cl` (centres undefined) came in with a kinetic solubility of 30.1 µg/mL. In the case of `COc1ccc(Cl)cc1NC(=O)C1(c2cccs2)CCOCC1`, the kinetic solubility turned out to be 21.7 µg/mL (≈ 61.7 µM). Then `Cc1cc(C)nc(S/C=C/C(=O)c2ccc(F)cc2)n1`, with under 0.3 µg/mL; and `CCC(=O)N1CCc2nc(-c3ccccc3)sc2C1`, with over 40.9 µg/mL. Next, `Cc1ccc(CCC(=O)Nc2ccc([N+](=O)[O-])cc2)o1`: 30.9 µg/mL (≈ 113 µM); `CCOc1ccc(N2C=Nc3ccc(OCC)cc3C2)cc1`: 11.6 µg/mL (≈ 39.1 µM); `O=C(Cc1ccc([N+](=O)[O-])cc1)c1ccc(O)cc1O`: over 41 µg/mL. For `O=C(CCN1CCN(CCO)CC1)Nc1ccc(Br)cc1`, the solubility (kinetic) is over 53.4 µg/mL. Then `CC(C1CC1)N(Cc1ccccc1)C(=O)NC(=O)c1ccccc1` (centres undefined), with 46.1 µg/mL (≈ 143 µM); and `O=C(O)c1cccc(CN2C(=O)c3ccccc3C2=O)c1`, with over 42.2 µg/mL; and `Cc1c(C(=O)O)sc2nc(/C=C/c3cccc(O)c3)[nH]c(=O)c12`, with 35.5 µg/mL (≈ 108 µM). Then `CSc1nc2cc(Oc3cccc(Cl)c3Cl)c(Cl)cc2[nH]1`, with 0.5 µg/mL (≈ 1.39 µM); and `Cn1ccc(C(=O)OCC(=O)Nc2ccccc2Cl)n1`, with over 44.1 µg/mL. Take `O=C1CSC(c2cccnc2)N1c1ccc(Cl)cc1` (centres undefined): the kinetic solubility is over 43.6 µg/mL.

In turn, `COc1cc2c(cc1OC)C(c1ccccc1)NCC2` (centres undefined) showed a solubility (kinetic) of over 40.4 µg/mL.

Regarding `CNc1nc(-c2c(C)n(C)c3ccc(OC)cc23)cs1`, the solubility (kinetic) came out at 23.9 µg/mL (≈ 83.2 µM). Next, `CC(NC(=O)CN1CCOCC1)c1ccc(F)cc1` (centres undefined): over 39.9 µg/mL. In the case of `CCN(CC)CCN(C(=O)/C=C/c1cccs1)c1nc2ccc(C)cc2s1.Cl`, the solubility (kinetic) was determined as 0.6 µg/mL. Next, `Cc1ccc(-c2nc(C(F)(F)F)cc(=O)[nH]2)cc1`: 18.4 µg/mL (≈ 72.4 µM); `COC(=O)c1cc(OC)nc(OC)c1`: 3 µg/mL (≈ 15.2 µM). Then `CN(C1CCCCC1)S(=O)(=O)c1ccc(SCC(=O)C(C)(C)C)nc1`, with 3.2 µg/mL (≈ 8.32 µM). Then `CC(C)NS(=O)(=O)c1ccc(NC(=O)Cc2ccsc2)cc1`, with over 50.8 µg/mL; and `Cc1nc(N(C)Cc2ccccc2)c2c(C)c(C)sc2n1`, with 4.2 µg/mL (≈ 14.1 µM). Compound `COc1ccc(CCNC(=O)CN2C(=O)NC3(CCCCC3C)C2=O)cc1` (centres undefined) returned a kinetic solubility of over 56 µg/mL. Next, `CCN(CC)S(=O)(=O)c1ccc2oc(Nc3ccccc3)nc2c1`: 6.4 µg/mL (≈ 18.5 µM); `Cc1ccc(S(=O)(=O)NCc2cccnc2)c(C)c1`: over 41.5 µg/mL; `CCCn1c(COc2ccccc2)nc2ccccc21`: 37.4 µg/mL (≈ 140 µM).

Consider `COc1ccc(CCn2cnc3c([nH]c4ccccc43)c2=O)cc1`, for which the solubility (kinetic) is under 0.2 µg/mL. Then `CCOc1ccc(S(=O)(=O)N2CCN(C(=O)c3ccco3)CC2)cc1`, with over 54.7 µg/mL; and `CC(C)Oc1cccc(C(=O)C2CCCN(S(C)(=O)=O)C2)c1` (centres undefined), with over 48.8 µg/mL; and `CN(C)C(=O)COc1ccc2c(-c3ccccc3)cc(=O)oc2c1`, with 12.6 µg/mL (≈ 39 µM).

`O=C1CCc2cc(S(=O)(=O)Nc3ccccc3F)ccc2N1` registered a kinetic solubility of over 48.1 µg/mL. Then `C=CCC(C(=O)NC(C)c1ccccc1)C(=O)NC(C)c1ccccc1` (centres undefined), with 16.5 µg/mL (≈ 47.1 µM); and `Cc1ccc(-n2sc3ccccc3c2=O)cc1`, with 9.2 µg/mL (≈ 38.1 µM). Then `O=C(COC(=O)c1ccc2c(c1)OCCO2)Nc1ccc(F)cc1F`, with 6.9 µg/mL (≈ 19.8 µM). As for `COc1ccc(NS(=O)(=O)c2cc(C(=O)N3CCCCCC3)ccc2C)cc1`, the kinetic solubility was over 60.4 µg/mL. On to `O=C(COC(=O)CC1CC2CCC1C2)NCc1ccc(F)cc1` (centres undefined), for which the solubility (kinetic) stood at 46.1 µg/mL (≈ 144 µM).

For the compound `Cc1cc(C)nc(NC(=O)Nc2ccc(F)cc2F)n1`, the solubility (kinetic) came out at 10.2 µg/mL (≈ 36.7 µM). Consider `COC(=O)c1ccc(NC(=O)C2CC(=O)OC2c2ccccc2)cc1` (centres undefined), for which the kinetic solubility turned out to be 36 µg/mL (≈ 106 µM). Consider `Cc1sc2ncnc(N[C@@H](Cc3ccccc3)C(=O)O)c2c1C`, for which the solubility (kinetic) was 46.8 µg/mL (≈ 143 µM).

As to `CCOc1ccccc1C(=O)NC(C)CCc1ccccc1` (centres undefined), the kinetic solubility was found to be 22.2 µg/mL (≈ 74.6 µM).

For `COc1ccc([N+](=O)[O-])c(OC)c1C(=O)Nc1ccc(F)cc1F`, the kinetic solubility is 33.9 µg/mL (≈ 100 µM).

`CC(=O)c1c(C)c(C)c2n1CCn1c(C)ccc1-2` registered a kinetic solubility of 13.4 µg/mL (≈ 55.3 µM). Next, `COc1ccccc1CNC(=O)COC(=O)Cc1cccs1`: over 47.9 µg/mL; `O=C(Cc1ccc([N+](=O)[O-])cc1)N1CCN(Cc2ccc3c(c2)OCO3)CC1`: 46.4 µg/mL (≈ 121 µM); `COc1ccc(C(=O)Nc2ccc3nc(C)sc3c2)cc1OC`: 3 µg/mL (≈ 9.14 µM). Then `O=C(CSc1ccccn1)N1CCNC1=O`, with over 35.6 µg/mL. Then `O=C1NC(=Nc2ccccc2)S/C1=C/c1cccnc1`, with 1.2 µg/mL (≈ 4.27 µM); and `O=C(OCc1ccc([N+](=O)[O-])cc1)c1cc2ccccc2oc1=O`, with under 0.7 µg/mL; and `COc1ccc(CN(C)C(=O)CCl)cc1`, with over 34.2 µg/mL.

Consider `COc1ccccc1OCC(O)COC(N)=O` (centres undefined), for which the kinetic solubility worked out at 29.9 µg/mL (≈ 124 µM).

`CN1C(=O)C(CC(=O)NC2CCCCC2)N(C)C1=O` (centres undefined): the kinetic solubility was over 40.1 µg/mL. Compound `N#Cc1ccc(OC(=O)c2cnccn2)cc1` registered a solubility (kinetic) of 31.7 µg/mL (≈ 141 µM).

On to `COc1cc(C(=O)N=c2sccn2C)c([N+](=O)[O-])cc1OC`, for which the solubility (kinetic) was determined as 47.2 µg/mL (≈ 146 µM). This solubility kinetic and that of the compound before are within 1.5-fold of each other. Next, `COc1ccccc1CN1CCCCC1C(=O)O` (centres undefined): 35.8 µg/mL (≈ 144 µM); `O=C1CCCN1CCCNS(=O)(=O)c1ccc(F)cc1F`: over 47.8 µg/mL; `CCS(=O)(=O)N1CCc2nc(-c3ccccc3)sc2C1`: over 46.3 µg/mL. Then `Cc1ccccc1Nc1c(-c2ccccc2)nc2ncccn12`, with 8.1 µg/mL (≈ 27 µM); and `Cc1ccc(NC(=O)CSc2nc(N)cc(=O)[nH]2)cc1S(=O)(=O)N1CCCCCC1`, with 10.6 µg/mL (≈ 23.5 µM); and `CCC(=O)N/C(N)=N/c1nc(C)c2cc(C)c(C)cc2n1`, with 11.6 µg/mL (≈ 40.7 µM).

The compound `COc1ccccc1C(=O)Nc1ccc(Br)c2cccnc12` gave a kinetic solubility of under 0.4 µg/mL. Then `CC(NC(=O)CN1CCCC1)c1ccccc1` (centres undefined), with over 34.8 µg/mL; and `Cc1ccc(OCC(=O)NCCCNC(=O)c2ccc(C)nc2)cc1`, with over 51.2 µg/mL; and `CC(C)c1ccc(NC(=O)CCc2ccccc2)cc1`, with 3.9 µg/mL (≈ 14.6 µM). `CN(C)c1cccc(N(C)C)c1CNC(=O)C(C)(C)C`: the solubility (kinetic) was determined as 39.7 µg/mL (≈ 143 µM).

With `Cc1ccc2[nH]c(C(=O)N3CCOCC3)cc2c1`, the solubility (kinetic) is over 36.6 µg/mL.

For `C=CCNC(=S)Nc1ccc(Cl)cc1F`, the kinetic solubility was over 36.7 µg/mL. Next, `Cn1cccc1C1CCCN1CC(=O)Nc1ccc(C(N)=O)cc1` (centres undefined): over 49 µg/mL; `Cc1cc(C)c2c(=O)[nH]c(SCC(=O)N3CCOCC3)nc2n1`: over 50.2 µg/mL; `COc1ccc(CNC(=O)COC(=O)C2CC2C)cc1OC` (centres undefined): over 46.1 µg/mL. In the case of `Cc1nc(-c2ccc([N+](=O)[O-])cc2)c(-c2ccccc2)o1`, the kinetic solubility worked out at 5.1 µg/mL (≈ 18.2 µM). Turning to `CCN1CCc2c(OCC(=O)N3CCCCC3)cccc2C1=O`, the solubility (kinetic) was over 47.5 µg/mL. Then `Cc1cccc(C(=O)OCC(=O)Nc2ccc(F)cc2)c1`, with 6.3 µg/mL (≈ 21.9 µM). Turning to `COC(=O)c1ccc(Cn2cc(/C=C\[N+](=O)[O-])c3ccccc32)o1`, the kinetic solubility was 1.6 µg/mL (≈ 4.9 µM). Next, `CN(C)CCNC(=O)c1ccccc1-c1cc2ccccc2c(=O)o1`: over 50.5 µg/mL; `CN(Cc1nc(-c2ccc(Cl)cc2)no1)C(=O)c1ccco1`: 47.5 µg/mL (≈ 149 µM). On to `COc1ccc(NS(=O)(=O)c2cn(C)nc2C)cc1`, for which the kinetic solubility was over 42.2 µg/mL.

Turning to `Cc1ccc(S(=O)(=O)Nc2cnc3ccccc3c2)cc1`, the kinetic solubility was over 44.8 µg/mL. As to `NS(=O)(=O)c1ccc(CCNC(=O)c2ccc(Cl)c(S(=O)(=O)NCc3ccco3)c2)cc1`, the solubility (kinetic) is over 74.7 µg/mL. Next, `S=c1nc(-c2ccccc2)n(Cc2cccnc2)c2c1CCCC2`: over 50 µg/mL; `Cc1cnc(C(=O)OCC(=O)N=c2sccn2Cc2ccccc2Cl)cn1`: 55.2 µg/mL (≈ 137 µM).

In the case of `S=C(Nc1ccc(Br)cc1)Nc1ccc2c(c1)OCCO2`, the kinetic solubility was 1.5 µg/mL (≈ 4.11 µM). With `CN(CC(=O)Nc1ccc(Br)cc1)Cc1ccccc1`, the solubility (kinetic) amounted to 25.4 µg/mL (≈ 76.2 µM). Next, `CCOc1cccc(C(=O)Nc2cccc(NC(=O)c3ccco3)c2)c1`: 3.9 µg/mL (≈ 11.1 µM); `COc1ccc(N=C(C)c2sc3ccccc3c2O)cc1`: under 0.6 µg/mL. Then `CC(C)COc1ccc(C(=S)N2CCCC2)cc1`, with 21.2 µg/mL (≈ 80.5 µM); and `CCN1CCN(S(=O)(=O)c2ccc(OC)c3ccccc23)CC1`, with 29.2 µg/mL (≈ 87.3 µM). In the case of `CCc1nnc(NC(=O)CSc2nc(C)cs2)s1`, the solubility (kinetic) is over 45.1 µg/mL. The compound `Cc1ccc2c(c1)c1ncn(Cc3ccc(F)cc3)c(=O)c1n2C` displayed a solubility (kinetic) of 0.3 µg/mL (≈ 0.934 µM). Next, `O=C1c2ccccc2C(=O)N1CCn1ccnc1`: over 36.2 µg/mL. Take `COc1cc(/C=C/c2ccc3cccc(O)c3n2)cc(OC)c1OC`: the kinetic solubility was under 0.7 µg/mL. Then `Cc1c(O)ccc(C(=O)CN2CC(C)OC(C)C2)c1O` (centres undefined), with over 41.9 µg/mL; and `N/C(CC(=O)Nc1ccc(F)c(Cl)c1)=N\OC(=O)c1cccs1`, with 2.4 µg/mL (≈ 6.75 µM).

`CCN(CC)C(=O)c1ccc(NC(=O)c2ccc3c(c2)NC(=O)CS3)cc1` returned a kinetic solubility of 6.2 µg/mL (≈ 16.2 µM). This solubility kinetic is about 2.6-fold higher than that of the compound before. Then `COc1ccccc1Nc1nc(Cl)c(C=O)s1`, with 12.1 µg/mL (≈ 45 µM). Next, `CC(C)CC1C2C(=O)N(c3ccccc3)C(=O)C2ON1c1ccccc1` (centres undefined): 27.7 µg/mL (≈ 79 µM). Next, `CCN(c1cccc(C)c1)C1C(=O)c2ccccc2N1C(C)=O` (centres undefined): over 46.3 µg/mL; `O=C(CN1C(=O)C(=O)N(Cc2ccco2)C1=O)NC1CCCCC1`: 45.8 µg/mL (≈ 137 µM); `Cc1ccoc1C(=O)Nc1cccc2ccccc12`: 33.9 µg/mL (≈ 135 µM). As to `O=C(CCCc1nc(-c2ccc(Cl)cc2)no1)NC1CCCCC1`, the kinetic solubility worked out at 2.1 µg/mL (≈ 6.04 µM).

`CCOC(=O)CN1C(=O)C(=O)N(Cc2cccc(C)c2)C1=O` returned a kinetic solubility of over 45.6 µg/mL. `Cc1ccc(S(=O)(=O)C2(C(=O)NCCc3ccccc3)CC2)cc1` gave a kinetic solubility of 50.5 µg/mL (≈ 147 µM). Compound `CN(CC(=O)NCc1ccncc1)S(=O)(=O)c1ccc(Cl)cc1` returned a solubility (kinetic) of over 53.1 µg/mL.
